Assay results as given in publication PMC6556873, “Rapid Covalent-Probe Discovery by Electrophile-Fragment Screening” (Journal of the American Chemical Society, 2019).
Read-outs that look alike come from different tables or passages of the source.

Tests used:
[1] = biological target: T1, BSA (Bos taurus, UniProt P02769); set-up: Intact protein LC/MS covalent labelling, fragments in pools of five, 200 uM each, 4 °C; details: 24 h, 4 °C, pool of five; 200 µM; covalent
T1 construct: gene ALB

[2] = biological target: T2, NUDT7 (Homo sapiens, UniProt P0C024); set-up: Intact protein LC/MS covalent labelling, fragments in pools of five, 200 uM each, 4 °C; details: 24 h, 4 °C, pool of five; 200 µM; covalent
T2 construct: residues 14-235, E. coli, pNIC28-Bsa4, N-terminal His6 tag removed by TEV, construct 26672 Da

[3] = biological target: T3, OTUB2 (OTUB2A) (Homo sapiens, UniProt Q96DC9); set-up: Intact protein LC/MS covalent labelling, fragments in pools of five, 200 uM each, 4 °C; details: 24 h, 4 °C, pool of five; 200 µM; covalent
T3 construct: full length residues 1-234, E. coli BL21(DE3)-R3, His tag removed by TEV, construct 27312 Da
T3 sequence (Q96DC9 1-234): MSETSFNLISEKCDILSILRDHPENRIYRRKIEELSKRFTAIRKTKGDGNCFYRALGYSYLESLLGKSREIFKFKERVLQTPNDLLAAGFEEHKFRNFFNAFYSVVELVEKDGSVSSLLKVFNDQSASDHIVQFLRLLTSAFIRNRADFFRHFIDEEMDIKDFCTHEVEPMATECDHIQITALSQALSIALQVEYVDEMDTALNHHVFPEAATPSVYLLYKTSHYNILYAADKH

[4] = biological target: T4, PCAF (Homo sapiens, UniProt Q92831); set-up: Intact protein LC/MS covalent labelling, fragments in pools of five, 200 uM each, 4 °C; details: 24 h, 4 °C, pool of five; 200 µM; covalent
T4 construct: gene KAT2B

[5] = in vitro; set-up: species or system CCD841, HEK293; details: human, hb2 cells, read-out: HB-2 Cells Viability (%)
[6] = in vitro; set-up: species or system HB2, HEK293; details: human, ccd841 cells
[7] = in vitro; set-up: species or system HB2, CCD841; details: human, hek293 cells

T1 sequence (P02769 whole entry, the tested form may be a part): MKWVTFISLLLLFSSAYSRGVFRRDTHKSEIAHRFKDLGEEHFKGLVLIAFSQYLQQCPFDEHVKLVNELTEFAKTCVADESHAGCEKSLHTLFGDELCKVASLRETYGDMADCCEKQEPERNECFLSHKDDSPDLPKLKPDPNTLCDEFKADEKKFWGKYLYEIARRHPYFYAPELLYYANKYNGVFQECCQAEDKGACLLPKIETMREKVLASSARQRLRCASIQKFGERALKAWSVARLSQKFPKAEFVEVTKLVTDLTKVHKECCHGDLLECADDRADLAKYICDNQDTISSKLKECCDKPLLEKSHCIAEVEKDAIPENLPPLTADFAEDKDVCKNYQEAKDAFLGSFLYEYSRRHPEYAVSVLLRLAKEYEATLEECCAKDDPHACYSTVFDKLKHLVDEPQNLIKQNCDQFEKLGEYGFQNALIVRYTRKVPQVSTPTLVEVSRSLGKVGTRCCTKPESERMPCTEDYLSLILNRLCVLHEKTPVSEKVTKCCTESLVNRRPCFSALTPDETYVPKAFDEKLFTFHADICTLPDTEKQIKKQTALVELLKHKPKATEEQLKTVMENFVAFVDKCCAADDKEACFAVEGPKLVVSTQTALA
T4 sequence (Q92831 whole entry, the tested form may be a part): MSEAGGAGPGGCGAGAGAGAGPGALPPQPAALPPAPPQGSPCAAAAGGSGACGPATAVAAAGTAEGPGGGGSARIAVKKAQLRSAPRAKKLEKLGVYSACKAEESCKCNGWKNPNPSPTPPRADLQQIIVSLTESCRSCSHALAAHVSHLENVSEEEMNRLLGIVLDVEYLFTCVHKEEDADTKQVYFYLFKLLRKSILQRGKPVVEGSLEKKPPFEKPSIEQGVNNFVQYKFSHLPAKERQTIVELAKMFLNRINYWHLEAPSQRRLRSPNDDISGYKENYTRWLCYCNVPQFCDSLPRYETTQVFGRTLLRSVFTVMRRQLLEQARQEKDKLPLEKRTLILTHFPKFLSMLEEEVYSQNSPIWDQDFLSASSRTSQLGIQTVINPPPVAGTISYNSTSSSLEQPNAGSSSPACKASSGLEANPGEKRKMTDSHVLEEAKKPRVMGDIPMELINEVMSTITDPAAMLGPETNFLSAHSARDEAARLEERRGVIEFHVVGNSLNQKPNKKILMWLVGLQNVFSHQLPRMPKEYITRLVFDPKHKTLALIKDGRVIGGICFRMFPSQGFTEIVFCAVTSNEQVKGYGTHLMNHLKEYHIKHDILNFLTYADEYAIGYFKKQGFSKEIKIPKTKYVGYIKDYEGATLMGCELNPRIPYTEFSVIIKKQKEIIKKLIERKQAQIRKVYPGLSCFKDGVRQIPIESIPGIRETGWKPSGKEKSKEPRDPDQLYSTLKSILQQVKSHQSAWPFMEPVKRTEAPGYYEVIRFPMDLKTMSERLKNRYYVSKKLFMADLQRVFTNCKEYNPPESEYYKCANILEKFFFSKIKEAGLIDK
T2 sequence (P0C024 14-235): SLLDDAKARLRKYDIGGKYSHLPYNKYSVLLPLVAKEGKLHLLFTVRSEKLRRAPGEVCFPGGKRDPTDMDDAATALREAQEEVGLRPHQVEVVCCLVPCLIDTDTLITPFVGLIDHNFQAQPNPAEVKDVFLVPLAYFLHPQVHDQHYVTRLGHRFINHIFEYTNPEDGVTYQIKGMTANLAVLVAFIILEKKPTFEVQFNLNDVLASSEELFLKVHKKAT

SMILES | BSA [1] | NUDT7 [2] | OTUB2 [3] | PCAF [4] | viability at 48 h, 10 µM [5] [%] | viability at 48 h, 10 µM [6] [%] | viability at 48 h, 10 µM [7] [%]
O=C(CCl)Nc1cccnc1N1CCCC1 [PCM-0102852] | 0 | 0 | 0 | 0 | 106 | 100 | 115
O=C(CCl)Nc1ccc(Cl)cc1Cl [PCM-0102914] | 0 | 0.22 | 0.14 | 0 | 52.5 | 82.7 | 38.3
O=C1CN(C(=O)CCl)c2ccc(C(F)(F)F)cc2N1 [PCM-0102289] | 0 | 0 | 0 | 0 | 89.3 | 96.4 | 94.7
O=C(CCl)N1CCCC1c1ccsc1 (centres unmarked) [PCM-0102693] | 0 | 0.2 | 0 | 0 | 11.7 | 37.7 | 4.6
O=C(CCl)NC(=O)NCC(F)(F)F [PCM-0103037] | 0 | 0 | 0.3 | 0 | 89 | 78.2 | 95.7
O=C(CCl)Nc1ccc(I)cc1 [PCM-0102278] | 0.09 | 0.09 | 0.24 | 0 | 18.7 | 57.1 | 4.9
C=CC(=O)NC1(c2nnc[nH]2)CCC1 [PCM-0102722] | 0 | 0 | 0 | 0 | 102 | 96.7 | 105
O=C(CCl)Nc1nnc(C2CC2)o1 [PCM-0102187] | 0 | 0 | 0 | 0 | 106 | 114 | 97.2
C=CC(=O)NC1(C(=O)N2CCN(C)CC2)CCCC1 [PCM-0103054] | 0.08 | 0 | 0 | 0 | 99.9 | 109 | 110
Cc1cc(C)c(C(C)NC(=O)CCl)cc1C (centres unmarked) [PCM-0102879] | 0 | 0 | 0.17 | 0 | 87.3 | 83.7 | 59.6
CC1CCCC(NC(=O)CCl)C1C (centres unmarked) [PCM-0102663] | 0.21 | 0 | 0.29 | 0 | 98.5 | 104 | 87.3
Cc1sc(NC(=O)CCl)c(C)c1C [PCM-0102968] | 0 | 0 | 0 | 0 | 16.1 | 57.3 | 2.3
COC(=O)c1c(NC(=O)CCl)sc2c1CCC2 [PCM-0102542] | 0 | 0.14 | 0 | 0 | 18.1 | 70.6 | 18.6
O=C(CCl)Nc1ccc(Br)cc1 [PCM-0102992] | 0 | 0.11 | 0.08 | 0 | 12.2 | 52.9 | 4.4
